Among the data in patent US8071600B2, “Derivatives of 4-piperazin-1-yl-4-benzo[B]thiophene suitable for the treatment of CNS disorders” (Otsuka Pharmaceutical Co., Ltd., priority 2005, dated 2011) are melting point and Ki values, retold here.

Structures can show the parent of a compound that is named as a salt.

The target in one data set is T1, Dopamine D2 receptor (Rattus norvegicus, UniProt P61169).
T1 construct: from tissue; host or cells: Wistar rat brain, corpus striatum membranes
The experiment in a line: Dopamine D2 receptor binding assay ([3H]-raclopride). To be noted: Dopamine D2 receptor binding test, rat corpus striatum membrane, Ki calculated from IC50 by Cheng-Prussoff formula. The procedure: 1) Dopamine D2 Receptor Binding Assay
The assay was performed according to the method by Kohler et al. (Kohler C, Hall H, Ogren S O and Gawell L, Specific in vitro and in vivo binding of 3H-raclopride. A potent substituted benzamide drug with high affinity for dopamine D-2 receptors in the rat brain. Biochem. Pharmacol., 1985; 34: 2251-2259).
Wistar male rats were decapitated, the brain was retrieved immediately and corpus striatum was taken out. It was homogenized in 50 mM tris(hydroxymethyl)aminomethane (Tris)-hydrochloric acid buffer (pH 7.4) of a volume 50 times of the weight of the tissue using a homogenizer with a high-speed rotating blade, and centrifuged at 4° C., 48,000×g for 10 minutes. The obtained precipitate was suspended again in the above-described buffer of a volume 50 times of the weight of the tissue and after incubated at 37° C. for 10 minutes, centrifuged in the above-described condition. The obtained precipitate was suspended in 50 mM (Tris)-hydrochloric acid buffer (containing 120 mM NaCl, 5 mM KCl, 2 mM CaCl2, 1 mM MgCl2, pH 7.4) of a volume 25 times of the weight of the tissue and preserved by freezing at −85° C. till it was used for binding assay as a membrane specimen.
The binding assay was performed using 40 μl of the membrane specimen, 20 μl of [^3H]-raclopride (final concentration 1 to 2 nM), 20 μl of a test drug and 50 mM Tris-hydrochloric acid buffer (containing 120 mM NaCl, 5 mM KCl, 2 mM CaCl2, 1 mM MgCl2, pH 7.4) so that the total amount was 200 μl (final dimethylsulfoxide concentration 1%). The reaction was performed at room temperature for 1 hour and terminated by conducting suction filtration with a cell harvester on a glass fiber filter plate. The filter plate made of glass fiber was washed with 50 mM Tris-hydrochloric acid buffer (pH 7.4), and after dried, a microplate liquid scintillation cocktail was added and the radioactivity was measured with a microplate scintillation counter. Radioactivity in the presence of 10 μM (+)-butaclamol hydrochloride was assumed as nonspecific binding.
(§1) IC50 value was calculated from concentration-dependent reaction using a non-linear analysis program. Ki value was calculated from IC50 value using Cheng-Prussoff formula.

The target of data set [1] is T2, Serotonin 5-HT2A receptor (Rattus norvegicus, UniProt P14842).
T2 construct: from tissue; host or cells: Wistar rat brain, frontal cortex membranes
T2 sequence (P14842 whole entry): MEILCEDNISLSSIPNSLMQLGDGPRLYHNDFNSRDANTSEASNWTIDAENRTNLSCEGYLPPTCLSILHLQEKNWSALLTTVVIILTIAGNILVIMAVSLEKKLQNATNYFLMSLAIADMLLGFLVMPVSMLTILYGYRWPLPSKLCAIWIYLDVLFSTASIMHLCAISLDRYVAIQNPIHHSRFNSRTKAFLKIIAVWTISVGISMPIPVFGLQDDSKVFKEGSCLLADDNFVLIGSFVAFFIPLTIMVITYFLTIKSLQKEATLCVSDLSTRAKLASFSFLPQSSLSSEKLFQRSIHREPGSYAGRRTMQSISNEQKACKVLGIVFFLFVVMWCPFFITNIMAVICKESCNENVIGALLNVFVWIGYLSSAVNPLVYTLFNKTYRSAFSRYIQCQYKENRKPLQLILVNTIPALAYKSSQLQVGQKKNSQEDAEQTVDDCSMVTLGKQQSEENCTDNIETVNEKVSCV
The experiment in a line: Serotonin 5-HT2A receptor binding assay ([3H]-Ketanserin). The following applies: Serotonin 5-HT2A receptor binding test, rat frontal cortex membrane, Ki calculated from IC50 by Cheng-Prussoff formula. The procedure: 2) Serotonin 5-HT2A Receptor Binding Assay
The assay was performed according to the method by Leysen J E et al. (Leysen J E, Niemegeers C J E, Van Nueten J M and Laduron P M. [3H] Ketanserin (R 41 468), a selective 3H-ligand for serotonin 2 receptor binding sites. Mol. Pharmacol., 1982, 21: 301-314).
Wistar male rats were decapitated, the brain was retrieved immediately and frontal cortex was taken out. It was homogenized in 0.25 M sucrose of a volume 10 times of the weight of the tissue using a Teflon glass homogenizer, and centrifuged at 4° C., 1,000×g for 10 minutes. The obtained supernatant was transferred to another centrifuge tube and suspended in 0.25 M sucrose of a volume 5 times of the weight of the tissue and the precipitate was centrifuged in the above-described condition. The obtained supernatant was combined with the supernatant obtained above and adjusted to a volume 40 times of the weight of the tissue with 50 mM Tris-hydrochloric acid buffer (pH 7.4), and centrifuged at 4° C., 35,000×g for 10 minutes. The obtained precipitate was suspended again in the above-described buffer of a volume 40 times of the weight of the tissue and centrifuged in the above-described condition. The obtained precipitate was suspended in the above-described buffer of a volume 20 times of the weight of the tissue and preserved by freezing at −85° C. till it was used for binding assay as a membrane specimen.
The binding assay was performed using 40 μl of the membrane specimen, 20 μl of [^3H]-Ketanserin (final concentration 1 to 3 nM), 20 μl of a test drug and 50 mM Tris-hydrochloric acid buffer (pH 7.4) so that the total amount was 200 μl (final dimethylsulfoxide concentration 1%). The reaction was performed at 37° C. for 20 minutes and terminated by conducting suction filtration with a cell harvester on a glass fiber filter plate.
The filter plate made of glass fiber was washed with 50 mM Tris-hydrochloric acid buffer (pH 7.4), and after dried, a microplate liquid scintillation cocktail was added and the radioactivity was measured with a microplate scintillation counter. Radioactivity in the presence of 10 μM spiperone was assumed as nonspecific binding.
as §1

T1 sequence (P61169 whole entry): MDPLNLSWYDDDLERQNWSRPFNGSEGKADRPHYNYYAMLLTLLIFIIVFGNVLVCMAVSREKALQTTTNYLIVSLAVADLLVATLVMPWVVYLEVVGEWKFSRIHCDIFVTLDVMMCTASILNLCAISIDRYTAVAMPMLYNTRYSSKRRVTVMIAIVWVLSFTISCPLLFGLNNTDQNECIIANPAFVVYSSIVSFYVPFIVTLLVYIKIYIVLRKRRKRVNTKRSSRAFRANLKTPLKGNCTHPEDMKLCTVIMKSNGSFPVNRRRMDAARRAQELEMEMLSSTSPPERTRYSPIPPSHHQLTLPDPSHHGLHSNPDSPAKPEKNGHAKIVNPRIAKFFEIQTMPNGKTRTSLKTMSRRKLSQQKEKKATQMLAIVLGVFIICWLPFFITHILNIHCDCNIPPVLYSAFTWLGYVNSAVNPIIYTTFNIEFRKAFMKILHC

Consider `COc1cc(N2CCN(C(C)=O)CC2=O)cc(C)c1OCCCN1CCN(c2cccc3sccc23)CC1` (as salt: hydrochloride) [Example 1079], for which the melting point (in general, the temperature of the solid-liquid transition) lay within 218 to 221.5 °C.
Still for that read-out and setting: with `COC(=O)N1CCN(c2cc(C)c(OCCCN3CCN(c4cccc5sccc45)CC3)c(OC)c2)C(=O)C1` (as salt: hydrochloride) [Example 1080] the figure was 223 to 228 °C.
Take `COc1cc(N2CCN(C(C)=O)CC2)cc(C)c1OCCCN1CCN(c2cccc3sccc23)CC1` (as salt: hydrochloride) [Example 1083]: the melting point was 257 to 261 °C (dec.).
Same read-out and setting: with `COc1cc(N2CCN(C(C)=O)CC2)cc(CO)c1OCCCN1CCN(c2cccc3sccc23)CC1` (as salt: hydrochloride) [Example 1084] the figure was 217.5 to 221 °C; with `COC(=O)N1CCN(c2cc(C=O)c(OCCCN3CCN(c4cccc5sccc45)CC3)c(OC)c2)CC1` (as salt: hydrochloride) [Example 1086], 225 °C (dec.).
Same read-out and setting: with `COc1cc(N2CCCCC2)cc(C)c1OCCCN1CCN(c2cccc3sccc23)CC1` (as salt: hydrochloride) [Example 1089] the figure was 248 to 251 °C (dec.); with `CN(C)C(=O)N1CCC(OCCCN2CCN(c3cccc4sccc34)CC2)CC1` (as salt: hydrochloride) [Example 1110], 202 to 205 °C; with `CN(C)C(=O)c1csc(OCCCN2CCN(c3cccc4sccc34)CC2)n1` (as salt: hydrochloride) [Example 1113], 178 to 182 °C.
The compound `CN(C)c1cc(OCCCCN2CCN(c3cccc4sccc34)CC2)n(C)n1` (as salt: hydrochloride) [Example 1138] displayed a melting point of 156.5 to 158.5 °C.
The same measure, in the same setting: with `COC(=O)c1cc(OCCCN2CCN(c3cccc4sccc34)CC2)n(C)n1` [Example 1, methyl 5-[3-(4-benzo[b]thiophen-4-yl-piperazin-1-yl)propoxy]-1-methyl-1H-pyrazole-3-carboxylate] the figure was 109 to 110.5 °C; with `Cn1nc(C(=O)O)cc1OCCCN1CCN(c2cccc3sccc23)CC1` [Example 2, 5-[3-(4-benzo[b]thiophen-4-yl-piperazin-1-yl)propoxy]-1-methyl-1H-pyrazole-3-carboxylic acid], 114.5 to 118 °C.
`CNC(=O)c1cc(OCCCN2CCN(c3cccc4sccc34)CC2)n(C)n1.Cl` [Example 3, N-methyl-5-[3-(4-benzo[b]thiophen-4-yl-piperazin-1-yl)propoxy]-1-methyl-1H-pyrazole-3-carboxamide hydrochloride]: the melting point is 228 to 232.5 °C (dec.). Also, at Dopamine D2 receptor, the Ki (as a rule, the equilibrium dissociation constant of an inhibitor or competing ligand from its target) was 1.5 nM. For the same compound, the Ki in data set [1] was 6 nM.
Take `CNC(=O)c1csc(OCCCN2CCN(c3cccc4sccc34)CC2)n1.Cl` [Example 6, N-methyl-2-[3-(4-benzo[b]thiophen-4-yl-piperazin-1-yl)propoxy]thiazole-4-carboxamide hydrochloride]: the melting point was in the range of 199.5 to 202.5 °C. Besides, the Ki on Dopamine D2 receptor is 0.7 nM. In addition, in data set [1], the inhibition constant (Ki) was 3.3 nM.
With `COc1cc(N)cc(C)c1OCCCN1CCN(c2cccc3sccc23)CC1` [Example 9, 4-[3-(4-benzo[b]thiophen-4-yl-piperazin-1-yl)-propoxy]-3-methoxy-5-methylaniline], the melting point was 155 to 158 °C.
For the compound `COc1cc(N(C)C(C)=O)cc(C)c1OCCCN1CCN(c2cccc3sccc23)CC1.Cl` [Example 14, N-{4-[3-(4-benzo[b]thiophen-4-yl-piperazin-1-yl)propoxy]-3-methoxy-5-methylphenyl}-N-methylacetamide hydrochloride], the melting point is 230 to 234 °C (dec.). Besides, the Ki at Dopamine D2 receptor was 0.3 nM. Moreover, in data set [1], the Ki is 2.4 nM.
In turn, `CNC(=O)c1ccc(OCCCN2CCN(c3cccc4sccc34)CC2)nc1` [Example 27] yielded a melting point of 132.5 to 133.5 °C. The Ki at Dopamine D2 receptor is 1.5 nM. Moreover, in data set [1], the Ki was 1 nM.
On the same counts, the results for `NC(=O)c1cc(OCCCN2CCN(c3cccc4sccc34)CC2)ccn1` [Example 48] are 150 to 150.5 °C, 2.3 nM and 3.8 nM.
In turn, `CNC(=O)c1cnc(OCCCN2CCN(c3cccc4sccc34)CC2)cn1` [Example 61] yielded a melting point of 116.5 to 118 °C. Moreover, on Dopamine D2 receptor, the Ki was 5 nM. Also, in data set [1], the Ki was 4.9 nM.
Compound `O=c1[nH]cnc2ccc(OCCCN3CCN(c4cccc5sccc45)CC3)cc12` [Example 94] gave a melting point of 213.1 to 218.5 °C. Further, at Dopamine D2 receptor, the Ki is 2.4 nM. In data set [1], the Ki is 2 nM.
Taken in the same sequence, the figures for `NC(=O)c1ccc(OCCCCN2CCN(c3cccc4sccc34)CC2)cc1` [Example 169] were 150 to 151.5 °C, 0.9 nM and 2.6 nM.
For the compound `CNC(=O)c1ccc(OCCCCN2CCN(c3cccc4sccc34)CC2)cc1` [Example 170], the melting point is 154 to 156 °C. Also, the inhibition constant (Ki) on Dopamine D2 receptor was 1 nM. Besides, the Ki in data set [1] is 3.3 nM.
As to `CNC(=O)c1ccc(OCCCN2CCN(c3cccc4sccc34)CC2)c(C)c1` [Example 186], the melting point lay within 156.5 to 158 °C. Further, the Ki on Dopamine D2 receptor is 1.3 nM. Besides, the inhibition constant Ki in data set [1] is 2 nM.
With `COc1cc(C(N)=O)ccc1OCCCN1CCN(c2cccc3sccc23)CC1` [Example 190], the melting point fell in the range of 162 to 163.5 °C. In addition, the Ki on Dopamine D2 receptor was 1.2 nM. In addition, in data set [1], the Ki is 0.6 nM.
The compound `CNC(=O)c1ccc(OCCCN2CCN(c3cccc4sccc34)CC2)c(N)c1` [Example 232] returned a melting point of 124 to 125.5 °C. Besides, the inhibition constant (Ki) on Dopamine D2 receptor is 1.1 nM. The Ki in data set [1] is 2.7 nM.
`CNC(=O)c1cc(C)c(OCCCN2CCN(c3cccc4sccc34)CC2)c(C)c1` [Example 241] registered a melting point of 152.5 to 154.5 °C. Besides, on Dopamine D2 receptor, the Ki was 0.4 nM. In data set [1], the Ki was 0.7 nM.
As to `COc1cc(C(N)=O)cc(OC)c1OCCCN1CCN(c2cccc3sccc23)CC1` [Example 243], the melting point lay in the range of 147.5 to 148 °C. On Dopamine D2 receptor, the Ki was 0.2 nM. Besides, the inhibition constant Ki in data set [1] was 0.5 nM.
On the same counts, the results for `CNC(=O)c1cc(C)c(OCCCN2CCN(c3cccc4sccc34)CC2)c(OC)c1` [Example 252] are 141.5 to 142.5 °C, 0.3 nM and 0.3 nM.
Consider `NC(=O)c1ccc(F)c(OCCCN2CCN(c3cccc4sccc34)CC2)c1` [Example 271], for which the melting point lay in the range of 156.5 to 159 °C. In addition, the Ki at Dopamine D2 receptor is 1.2 nM. In addition, the Ki in data set [1] was 0.6 nM.
Taken in the same sequence, the figures for `COc1cc(CN(C)C)ccc1OCCCN1CCN(c2cccc3sccc23)CC1` [Example 301] were 101 to 103 °C, 0.2 nM and 0.4 nM.
`C=CCn1nc(C(=O)NC)cc1OCCCN1CCN(c2cccc3sccc23)CC1` [Example 3098, 1-allyl-5-[3-(4-benzo[b]thiophen-4-yl-piperazin-1-yl)propoxy]-1H-pyrazole-3-carboxylic acid methylamide] came in with a melting point of 138.5 to 140.5 °C.
